According to patent publication US20230000806A1, “COMPOSITIONS AND METHODS FOR GLUTATHIONE ENHANCEMENT FOR USE IN BRAIN HEALTH” (SOCIETE DES PRODUITS NESTLE S.A., priority 2019, published 2023):

Assays:
rat primary astrocytes [1] = experiment: Cytoplasmic reactive oxygen species (ROS) measurement with CellROX Deep Red; assay type: cell-based; details: 48 hrs after treatment; oxidative stress triggered by 250 μM tBHP for 1 hour; vs control
Experimental: Cytoplasmic ROS was measured in rat primary astrocytes in culture by CellROX® Deep Red reagent, a novel cell-permeant dye with absorption/emission maxima of ˜644/665 nm. CellROX® Deep Red reagent while in a reduced state is non-fluorescent and becomes fluorescent upon oxidation by reactive oxygen species with emission maxima ˜665. CellMask™-green stains plasma membrane and DAPI stains nuclei. We used the green channel and the dapi to segment the image in cytoplasmic and nuclear areas and measure the CellROX deep red signal in these areas. As CellROX® Deep Red is a better read out for cytoplasmic ROS, we measure the average intensity in the cytoplasm and normalized to the average cytoplasmic area. Cell count using DAPI was performed to establish toxicity or cell detachment for each condition. Images were taken to cover all the area of the well where cells were seeded and at least 4 technical replicates were done for each condition and for each biological replicate. Measurements were performed at 48 hrs after treatment at baseline and after oxidative stress where oxidative stress was triggered by 250 μM tBHP for 1 hour. Results were compared to the control condition at baseline for each biological replicate and for each condition.

Nrf2 = experiment: Measurement of nuclear Nrf2 in astrocytes (immunostaining); assay type: cell-based, rat; details: 48 hrs after treatment; for increase Nrf2 levels in the cell nucleus: significant; for Nrf2 activation: vs control (water or 0.1% DSMO)
Experimental: Nuclear Nrf2 was measured in rat primary astrocytes in culture. The cells were stained with Nrf2 (Abcam ab89443 1:500), Tubulin (Abcam ab 89984 1:1000) antibodies and DAPI as nuclear counterstaining. We used the tubulin channel and the DAPI to segment the image in cytoplasmic and nuclear areas and measure the Nrf2 signal in these areas. We measure the average intensity in the nucleus and normalized to the average nuclear area. Cell count using DAPI was performed to establish toxicity or cell detachment for each condition. Images were taken to cover all the area of the well where cells were seeded and at least 6 technical replicates were done for each condition and for each biological replicate. Measurements were performed 48 hrs after treatment with each of the compounds: N-Acetylcysteine dissolved in water, while Puerarine, Sulfurophane, Taurine at different doses were dissolve in a 0.1% DSMO final solution. They were compared to the control in each condition which was water or 0.1% DSMO alone. Results were compared to the control condition for each biological replicate and for each condition. Statistics were done using Kruskal-Wallis Multiple Comparison test.

rat primary astrocytes [2] = experiment: Intracellular GSH by GSH-Glo Assay in rat primary astrocyte culture; assay type: cell-based; details: standard culture conditions (no cysteine depletion); 48 hrs after treatment; normalized to total proteins
Experimental: Intracellular GSH was measured in rat primary astrocytes in culture by using a GSH-Glo™ Assay, which is a luminescent-based assay for the detection and quantification of reduced and/or total glutathione levels in cells. The assay converted luciferin derivatives into luciferin in the presence of GSH. The reaction was catalyzed by a glutathione S-transferase (GST) enzyme supplied in the kit. The luciferin formed was detected in a coupled reaction using Ultra-Glo™ Recombinant Luciferase that generated a glow type luminescence that was proportional to the amount of glutathione present in cells. A standard curve was used for each biological replicate and at least 4 technical replicates were done for each condition and for each biological replicate. 10% of lysate of each technical and biological replicate was used to measure protein amount by BCA and used to normalize the GSH intracellular content to total proteins. Buthionine sulfoximine (BSO) a specific inhibitor of γ-glutamylcysteine ligase (GCL) was added at 15 mM at the time of the start of the treatment to confirm the specificity of the readout. Measurements were performed 48 hrs after treatment. Results were compared to the control condition for each biological replicate and for each condition.

rat primary astrocytes [3] = experiment: Intracellular GSH in astrocytes in medium reduced in cysteine and methionine; assay type: cell-based; details: medium depleted of methionine and cystine, supplemented with 15% FBS
Experimental: Intracellular GSH was measured in rat primary astrocytes in culture by using a GSH-Glo™ Assay, which is a luminescent-based assay for the detection and quantification of reduced and/or total glutathione levels in cells. The assay converted luciferin derivatives into luciferin in the presence of GSH. The reaction was catalyzed by a glutathione S-transferase (GST) enzyme supplied in the kit. The luciferin formed was detected in a coupled reaction using Ultra-Glo™ Recombinant Luciferase that generated a glow type luminescence that was proportional to the amount of glutathione present in cells. A standard curve was used for each biological replicate and at least 4 technical replicates were done for each condition and for each biological replicate. 10% of lysate of each technical and biological replicate was used to measure protein amount by BCA and used to normalize the GSH intracellular content to total proteins. […] Measurements were performed 48 hrs after treatment. […] To measure GSH increase after N-acetyl cysteine (Nac) and L-cysteine supplementation, rat primary astrocytes were cultured in medium depleted of methionine (a precursor of cysteine) and cystine but still supplemented with 15% FBS to not have a full depletion but rather a reduction of these amino acids. Experiments were performed only with the same batch of FBS to avoid any difference in amino-acid content amongst batches. […]

rats [4] = experiment: GSH levels in the nucleus accumbens of treated rats; assay type: in vivo, rat
rats [5] = experiment: Operant conditioning, progressive ratio reinforcement schedule (motivated behaviour); assay type: in vivo, rat; details: vs vehicle
Experimental: Adult male outbred rats were trained for nose poke for saccharine food pellets for one week on an FR1 training schedule as described in the methods below. Rats were then treated with either normal drinking water (vehicle) or N-acetyl cysteine (NAC) in the drinking water (FIG. 22A) at a dose that was previously shown to enhance GSH levels (FIG. 22B). Following 2 weeks of treatment, rats were given an additional 2 training sessions, followed 24 h later by a progressive ratio session designed to test their motivated behaviour. During this progressive ratio session, rats have to increasingly work harder to earn the saccharine pellet, as described in the methods below. […] The breakpoint is defined as the last step in the session where the animals received a reward and is a direct correlate of their willingness to exert an effort. […] Animals: Adult male Wistar rats (Charles Rivers, Saint-German-Nuelle, France) weighing 250-275 gr at the beginning of the experiment were used for all experiments. Rats were individually housed in cages in housing colonies on a 12:12 h reversed light:dark cycle with lights on at 20:00, and lights-off at 8:00. Food and water were available ad libitum. Following a week of acclimatization to the animal facilities, rats were handled for 2 min per day for three days prior to the start of the experiments, in order to habituate to the experimenters. Operant conditioning: Ten days after introduction to the reversed day-night cycle, rats started training in a fixed ratio 1 reinforcement schedule (FR1). Operant chambers (Coulbourn Instruments, Holliston, Mass., US), placed in sound attenuating cubicles, were equipped with a grid, underneath which a tray with standard bedding material was placed for collection of feces and urine after each training session. Each chamber had one food tray and two ports placed on either side of the tray. A cue light was placed in each port and the food tray, whereas a house light was placed above the food tray. The right-hand side port of each chamber was designated as “active”, meaning that spontaneous nosepoking would result in the drop of one 45 mg food pellet (Bio-Serv, Flemington, N.J., USA) to the food tray. Upon nosepoking in the active port, the cue and house lights were turned off, while the tray light turned on and the pellet dropped to the food tray. […] Subsequently, the chamber returned to its initial condition. Each training session lasted maximally two hours or until a rat acquired 100 pellets. Each rat received six training sessions (one training on each day for five consecutive days, followed by two days without training and one training session on day 8). Only rats that finished at least two training sessions acquiring 100 pellets before the two-hour mark were used for progressive ratio experiments. Subsequently, rats were treated with N-acetyl cysteine in the drinking water (500 mg/L) or continued having access to normal water (control). After two weeks of treatment, rats were exposed to another two days of FR1 training to ensure their training performance was similar to pre-treatment levels. To test motivated behaviour, rats were exposed to a progressive ratio reinforcement schedule (progressive ratio test). Progressive ratio sessions were identical to training sessions except that the operant requirement in each trial (T) was the integer (rounded down) of the function 1.4^(T-1) starting at one nosepoke for the first three trials and increasing in subsequent trials for rats (Wanat et al. Nat Neurosci. 2013; 16(4):383-5). Progressive ratio sessions lasted two hours. Correct nosepokes (i.e. nosepokes in the active port and outside the timeout period, thus resulting in food delivery) were calculated to evaluate behavioural performance, as well as the number of acquired rewards and the last completed ratio (breakpoint). Investigation of the Nucleus accumbens was undertaken in cannulated rats which were then moved to a reverse light-dark cycle to recover for 10 days. […]

[6] = single infusion in the Nucleus Accumbens, 1 μl of 7 μg/μl, 24 hours before
[7] = NAC in the drinking water (500 mg/L), 2 weeks

SMILES: O=c1c(-c2ccc(O)cc2)coc2c([C@@H]3O[C@H](CO)[C@@H](O)[C@H](O)[C@H]3O)c(O)ccc12 [Puerarine]
- reactive oxygen species after oxidative stress (rat primary astrocytes [1]): decreases reactive oxygen species after oxidative stress in a dose dependent manner
- increase Nrf2 levels in the cell nucleus (Nrf2; highest dose of 10 μm): ≤ 20%
- intracellular glutathione (rat primary astrocytes [2]): increases intracellular glutathione

SMILES: N[C@@H](CS)C(=O)O [L-cysteine]
- GSH intracellular level (rat primary astrocytes [3]): significantly increase the GSH intracellular level

SMILES: CCCCS(=N)(=O)CCC(N)C(=O)O (stereo not drawn) [BSO, Buthionine sulfoximine]
- reduction of GSH levels in the Nucleus Accumbens (rats [4]; single infusion in the Nucleus Accumbens, 1 μl of 7 μg/μl, 24 hours before the test, vs vehicle): 29%
- change in breakpoint (PR-schedule) (rats [5]; [6]): −68%
- change in correct nosepokes (PR-schedule) (rats [5]; [6]): −60%
- change in rewards (PR-schedule) (rats [5]; [6]): −22%

SMILES: NCCS(=O)(=O)O [Taurine, 2-aminoethanesulfonic acid]
- reactive oxygen species after oxidative stress (rat primary astrocytes [1]): decreases reactive oxygen species
- Nrf2 activation (Nrf2): does not activate Nrf2
- intracellular glutathione (rat primary astrocytes [2]): increases intracellular glutathione

SMILES: C[N+](C)(C)C(Cc1c[nH]c(S)n1)C(=O)O.[OH-] (stereo not drawn) [Ergothioneine, 1-carboxy-2-[2-mercaptoimidazole-4-(or 5)-yl]ethyl]-trimethyl-ammonium hydroxide]
- reactive oxygen species after oxidative stress (rat primary astrocytes [1]): decreases reactive oxygen species
- increase Nrf2 levels in the cell nucleus (Nrf2; 0.5 mM): ≤ 18%
- intracellular glutathione (rat primary astrocytes [2]): increases intracellular glutathione

SMILES: CC(=O)N[C@@H](CS)C(=O)O [N-Acetylcysteine, reference compound]
- reactive oxygen species after oxidative stress (rat primary astrocytes [1]): decreases reactive oxygen species
- Nrf2 activation (Nrf2): does not activate Nrf2
- intracellular glutathione (rat primary astrocytes [2]): does not increase intracellular glutathione
- GSH intracellular level (rat primary astrocytes [3]): significantly increase the GSH intracellular level
- GSH in the nucleus accumbens (rats [4]; NAC in the drinking water (500 mg/L), 2 weeks, vs vehicle treated rats): enhanced GSH in the nucleus accumbens
- breakpoint level in progressive ratio session (rats [5]; [7]): significantly higher breakpoint level
- nose pokes in progressive ratio session (rats [5]; [7]): significantly more nose pokes
- number of rewards in progressive ratio session (rats [5]; [7]): greater number of rewards

SMILES: CCNC(=O)CC[C@H](N)C(=O)O [L-theanine]
- reactive oxygen species after oxidative stress (rat primary astrocytes [1]): decreases reactive oxygen species
- intracellular glutathione (rat primary astrocytes [2]): increases intracellular glutathione

SMILES: C[S+]([O-])CCCCN=C=S (stereo not drawn) [Sulfurophane]
- reactive oxygen species after oxidative stress (rat primary astrocytes [1]): decreases reactive oxygen species
- increase Nrf2 levels in the cell nucleus (Nrf2; 2 μM): ≤ 20%
- intracellular glutathione (rat primary astrocytes [2]): increases intracellular glutathione
